The values below are quoted from earlier work in patent US20090291152A1, “DIBENZOTHIAZEPINE DERIVATIVES” (Concert Pharmaceuticals Inc., priority 2006, published 2009).

The conditions of series [1]: patients with hepatic impairment.
For series [2] the following is noted: majority of the metabolites.

For `OCCOCCN1CCN(C2=Nc3ccccc3Sc3ccccc32)CC1` [quetiapine, 11-[4-[2-(2-Hydroxyethoxy)ethyl]piperazin-1-yl]dibenzo[b,f][1,4]thiazepine], in series [1], the “increase in AUC” value is 3 fold and the “increase in Cmax” value is listed as 3 fold. In addition, in series [2], the “metabolites excreted in the urine” value is given as 73%.
